Assays:
WT mice = assay: CBZ treatment of wild-type mice (growth plate, collagen X localisation, bone growth); type: in vivo, mouse
Procedure: FIG. 7 illustrates the effect of CBZ treatment of WT mice Wild-type (WT) mice were treated with CBZ for a period of one week. Untreated mice were used as controls. (a)H+E images of the tibial growth plate at 4 weeks of age. (b) Table showing measurements of the growth plate zones. Mean±SEM. Number of animals shown in bracket. (c) Immunohistochemistry for collagen X in the tibial growth plate. Percentage increase in bone growth of the (d) Tibia and (e) Femur from 3 weeks of age. Mean±SEM.
Mice were anaesthetised using isofluorane, placed on X-Ray hyperfilm (GE healthcare, GZ28906850) and X-Rayed using a Flaxitron X-ray specimen radiography system (Flaxitron MX-20). X-Rays were performed prior to implantation and once per week for a maximum of 3 weeks. The analysis of the skeleton was done using Growbase software (Certus Technology Associated Limited, UK) to calculate the length of the femur, tibia and inner canthal distance. The bone growth rate was determined as a percentage increase relative to measurements at 3 weeks of age. Image J was used to analyse the angle of deflection from the vertical tuberosity of the ischium to determine the severity of the hip dysplasia phenotype. All measurements were analysed by ANOVA to determine significance using GraphPad Prism 6.0 software.
Growth plate zone widths were measured on images of known magnification as described previously (Rajpar et al 2009). The beginning of the proliferative zone was defined as the point at which the individual round chondrocytes flattened out and arranged into columns. The start of the hypertrophic zone was defined as the point at which proliferative chondrocytes rounded up and enlarged. The end of the hypertrophic zone was defined as the vascular invasion front. For each animal the data from three separate sections, spaced a minimum of 50 μm apart were averaged. Measurements were analysed for statistical significance by one-way ANOVA using GraphPad Prism 6.0 software. […]

mutant collagen X = assay: Western blot of intracellular mutant collagen X protein, with proteasome or lysosome inhibitors; type: cell-based
Procedure: FIG. 1 illustrates the effects of carbamazepine treatment on ER stress induced by four different MCDS-causing mutations in collagen X; (a) BiP, b) CHOP c) spliced XBP1 mRNA level in cells transiently expressing one of four mutant collagen X constructs and treated for 24 hours with Carbamazepine (CBZ) (20 μM). Quantitation is relative to actin mRNA levels. Mean±SEM. (d) Western blot showing intracellular collagen X protein levels with and without 24 hours CBZ treatment. Quantification of three independent experiments shown in (e). (f) Western blot for N617K collagen X collagen X protein levels in the presence of CBZ for either 0 or 24 hours. […] Quantification of three independent experiments relative to GAPDH and standardised against the protein level in the 16 h untreated timepoint is shown in (h) and (i). […]
FIG. 6 illustrates the degradation route of mutant collagen X proteins Western blot for (a) G618V or (c) Y598D collagen X protein levels in the presence of CBZ for either 0 or 24 hours. […] Quantification of three independent experiments relative to GAPDH and standardised against the protein level in the 16 h untreated timepoint is shown in (b) and (d). […]
Protein was extracted from cells 24 hours post-transfection. […] The resulting supernatant was transferred to a fresh tube and protein concentration determined using a Pierce bicinchoninic acid (BCA) protein assay. […]

SMILES: NC(=O)N1c2ccccc2C=Cc2ccccc21 [CBZ, Carbamazepine]
- bone growth rates (WT mice): did not cause a significant increase
- hypertrophic zone width (WT mice; CBZ for one week): no effect
- collagen X protein localisation (WT mice; tibial growth plate): no effect
- degradation rates of mutant collagen X proteins (mutant collagen X; each of 4 mutant collagen X proteins, PSII or chloroquine for the final 8 hours): enhanced the degradation rates
- intracellular levels of mutant collagen X protein (mutant collagen X; each of 4 mutations, 24 hours CBZ treatment): significant reductions
